Assay results as given in patent publication US6528675B1, “Cyanohydrin ethers and esters as high-sensitivity enzyme substrates” (The Regents of the University of California, priority 2001, dated 2003).

How the values were obtained:
[1] = Change in optical properties, fluorescence of esters and hydrolysis products; format: physicochemical
Description: The substrates representing the invention were (R/S)-acetic acid cyano-(6-methoxynaphthalen-2-yl)-methyl ester (the title compound of Synthesis Example 1 above) and (trans/cis)-3-(2,2-dichlorovinyl)-2,2-dimethylcyclopropanecarboxylic acid cyano-(6-methoxynaphthalen-2-yl)-methyl ester (the title compound of Synthesis Example 2 above). The substrates of the prior art were methylumbelyl acetate (for detection by fluorescence emission) and 2-naphthacetate (for detection by UV absorption) in assay solutions with different pH values. These prior art substrates were selected because both are widely used and both have aromatic systems similar to the two test compounds.
Again using tris-maleate at pH levels of 6.5, 7.5, and 8.5, fluorescence studies were performed at concentrations of 10 μM, and fluorescence of the starting esters and the hydrolysis products (hydroxycoumarin in the case of methylumbelyl acetate and 6-methoxy-naphthaldehyde in the case of the Example 1 substrate) were determined by conventional instrumentation. The results are listed in Table III in which “MUA” denotes methylumbelyl acetate, “Compound I” denotes the Example 1 substrate, “Ex” denotes the optimal excitation wavelength in nm, “Emmax” denotes the maximal emission wavelength in nm, and “RFU” denotes the relative fluorescence units multiplied by 1,000.

cytochrome P450 = assay: Substrate response to P450 enzyme activity, rat microsomal enzyme preparation; format: biochemical, rats; settings: pH 7.6, 37° C., substrate 10 mM final concentration, average of three tests
Description: This example compares four cytochrome P450 substrates within the scope of this invention with two cytochrome P450 substrates that are outside the scope of this invention. The four invention substrates were methoxynaphthalen-2-yl acetonitrile (whose synthesis is shown in Example 8 above and which is designated below as Compound III), ethoxynaphthalen-2-yl acetonitrile (synthesis shown in Example 9, Compound IV), benzoxynaphthalen-2-yl acetonitrile (synthesis shown in Example 10, Compound V), and pentoxynaphthalen-2-yl acetonitrile (synthesis shown in Example 11, Compound VI). The substrates outside the scope of the invention were ethoxyresorufin (designated below as Compound A) and pentoxyresorufin (designated below as Compound B). The structures of these last two substrates are as follows: [drawing 56]
All substrates were tested against a microsomal enzyme preparation from 8-week-old Fisher […] rats, by first combining 890 mL of the preparation with 2 mL of phosphate buffer (pH 7.6, 0.2 M) and incubating the mixture at 37° C. for 5 minutes. The substrate (10 mL) was then added (10 mM final concentration), followed by an appropriate signal generating system (100 mL). The samples were immediately read by fluorometer at 460 nm for 1 minute with excitation at 330 nm. The results in terms of specific activity, both with and without the enzyme system, are shown in Table VII, in which each entry represents an average of three tests.

porcine esterase [2] = assay: Sensitivity of substrate to enzyme strength; format: biochemical; settings: pH 8.0, 10 μM substrate, 1 unit=1 μmol/min/mL
Procedure: This example illustrates the sensitivity of the substrate to the enzyme, and compares a substrate in accordance with the present invention to two prior art substrates. […] The enzyme was porcine esterase.
A tris-maleate buffer at pH 8.0 (0.1 M) was used. The procedure consisted of adding substrate to a test tube containing 3 mL of buffer to a final substrate concentration of 10 μM, then adding porcine esterase at strengths of 0.06, 0.09. 0.12, 0.18, 0.30, 0.60, 0.9 and 1.2 unit, in which 1 unit=1 μmol/min/mL. […] The enzyme sensitivities for each substrate and detection method were defined as the minimal amount of enzyme per mL required to produce a signal from the substrate that was at least three times greater than the background noise.

[3] = Change in optical properties, UV absorption of esters and hydrolysis products; format: physicochemical; settings: for ε (molar absorptivity): in M-1 cm-1 (unit assumed)
Description: The substrates representing the invention were (R/S)-acetic acid cyano-(6-methoxynaphthalen-2-yl)-methyl ester (the title compound of Synthesis Example 1 above) and (trans/cis)-3-(2,2-dichlorovinyl)-2,2-dimethylcyclopropanecarboxylic acid cyano-(6-methoxynaphthalen-2-yl)-methyl ester (the title compound of Synthesis Example 2 above).

[4] = Substrate stability in buffer, UV detection; format: physicochemical; settings: 10 μM substrate, no enzyme, 5-minute reading
Procedure: (§1) The same two invention substrates and two prior art substrates were tested for stability by both UV detection and fluorescence detection under typical assay conditions.
(§2) Tris maleate buffers (0.1 M) at pH ranging from 6.0 to 9.0 in intervals of 1.0 were used, and substrate was added to 10 μM final concentration. […] The fluorescence samples were read with excitation at 360 nm and emission at 460 nm (for pH 6.0), 465 nm (for pH 7.0), 485 nm (pH 8.0), and 510 nm (pH 9.0) for the methylumbelyl acetate, and with excitation at 330 nm and emission at 460 nm for the two test compounds, in all cases, the readings over 5-minute periods.

[5] = Substrate stability in buffer, fluorescence detection; format: physicochemical; settings: 10 μM substrate, no enzyme, 5-minute reading
Procedure: as §1, §2

[6] = tested on: esterase from a rat liver microsomal preparation; assay: Specific activity of esterase against substrates; format: biochemical, Fisher 344 rats; settings: Rat liver microsome, pH 8.0, 10 μM substrate, fluorescence 330/460 nm
Procedure: (§3) The esterases were porcine esterase purchased from Sigma Chemical Company, St. Louis, Mo., USA, esterase from a rat liver microsomal preparation from 8-week-old Fisher 344 rats, and homogenates of Heliothis virescens from both pyrethroid-susceptible and -resistant strains of tobacco budworm. The substrate in each case was added to a tris-maleate buffer (pH 8.0, 0.1 m) to a final substrate concentration of 10 μM, followed by the addition of the enzyme preparation. The samples were then immediately read by fluorometer at 460 nm for one minute (excitation at 330 nm). The results are listed in Table VI, where “Compound I” denotes the Example 1 substrate, and “Compound II” denotes the Example 4 substrate.

[7] = tested on: homogenate of Heliothis virescens, pyrethroid-resistant strain; assay: Specific activity of esterase against substrates; format: biochemical; settings: H. virescens (resistant), pH 8.0, 10 μM substrate, fluorescence 330/460 nm
Procedure: as §3

[8] = tested on: homogenate of Heliothis virescens, pyrethroid-susceptible strain; assay: Specific activity of esterase against substrates; format: biochemical; settings: H. virescens (susceptible), pH 8.0, 10 μM substrate, fluorescence 330/460 nm
Procedure: as §3

porcine esterase [9] = assay: Specific activity of esterase against substrates; format: biochemical; settings: pH 8.0, 10 μM substrate, fluorescence 330/460 nm
Procedure: as §3

hydroxycoumarin [HO-coumarin]
Emmax (maximal emission wavelength) ([1]; tris-maleate pH 6.5, 10 μM): 460 nm | Ex (optimal excitation wavelength) ([1]; tris-maleate pH 6.5, 10 μM): 330 nm | RFU (relative fluorescence units multiplied by 1,000) ([1]; tris-maleate pH 6.5, 10 μM): 18,830 RFU | Emmax (maximal emission wavelength) ([1]; tris-maleate pH 7.5, 10 μM): 460 nm | Ex (optimal excitation wavelength) ([1]; tris-maleate pH 7.5, 10 μM): 330 nm | RFU (relative fluorescence units multiplied by 1,000) ([1]; tris-maleate pH 7.5, 10 μM): 19,025 RFU | Emmax (maximal emission wavelength) ([1]; tris-maleate pH 8.5, 10 μM): 460 nm | Ex (optimal excitation wavelength) ([1]; tris-maleate pH 8.5, 10 μM): 330 nm | RFU (relative fluorescence units multiplied by 1,000) ([1]; tris-maleate pH 8.5, 10 μM): 19,195 RFU

CCOC(C#N)c1ccc2ccccc2c1 (centres unmarked) [Compound IV, Ethoxynaphthalene-2-yl Acetonitrile]
Specific Activity, With Enzyme System (cytochrome P450): 292.6 ± 16.2 pmol/min/mg protein | Specific Activity, Without Enzyme System (cytochrome P450): 40.0 ± 1.2 pmol/min/mg protein | melting point: 53 to 54 °C

CCC1OC1CC(=O)OC(C#N)c1ccc2ccccc2c1 (centres unmarked)
melting point: 60 to 61 °C

CC(=O)Oc1ccc2c(C)cc(=O)oc2c1 [MUA, methylumbelyl acetate, reference compound]
Emmax (maximal emission wavelength) ([1]; tris-maleate pH 6.5, 10 μM): 366 nm | Ex (optimal excitation wavelength) ([1]; tris-maleate pH 6.5, 10 μM): 330 nm | RFU (relative fluorescence units multiplied by 1,000) ([1]; tris-maleate pH 6.5, 10 μM): 2,672 RFU | Emmax (maximal emission wavelength) ([1]; tris-maleate pH 7.5, 10 μM): 366 nm | Ex (optimal excitation wavelength) ([1]; tris-maleate pH 7.5, 10 μM): 330 nm | RFU (relative fluorescence units multiplied by 1,000) ([1]; tris-maleate pH 7.5, 10 μM): 1,350 RFU | Emmax (maximal emission wavelength) ([1]; tris-maleate pH 8.5, 10 μM): 366 nm | Ex (optimal excitation wavelength) ([1]; tris-maleate pH 8.5, 10 μM): 330 nm | RFU (relative fluorescence units multiplied by 1,000) ([1]; tris-maleate pH 8.5, 10 μM): 1,600 RFU | Sensitivity (minimal amount of enzyme per mL giving a signal at least three times background noise) (porcine esterase [2]; Fluorescence detection): 0.0005

CCCCCOc1ccc2nc3ccc(=O)cc-3oc2c1 [Compound B, pentoxyresorufin, reference compound]
Specific Activity, With Enzyme System (cytochrome P450): 62.5 ± 5.2 pmol/min/mg protein | Specific Activity, Without Enzyme System (cytochrome P450): 41.8 ± 2.2 pmol/min/mg protein

CC(=O)Oc1ccc2ccccc2c1 [Compound 2-NA, 2-naphthacetate, reference compound]
OD (optical density) ([3]; tris-maleate pH 6.5, 10 μM): 0.14 | ε (molar absorptivity) ([3]; tris-maleate pH 6.5, 10 μM): 3,500 | OD (optical density) ([3]; tris-maleate pH 7.5, 10 μM): 0.141 | ε (molar absorptivity) ([3]; tris-maleate pH 7.5, 10 μM): 3,500 | OD (optical density) ([3]; tris-maleate pH 8.5, 10 μM): 0.133 | ε (molar absorptivity) ([3]; tris-maleate pH 8.5, 10 μM): 3,300 | Substrate stability, UV Absorption ([4]; pH 6, tris maleate 0.1 M): <0.01 mAbs/min | Substrate stability, UV Absorption ([4]; pH 7, tris maleate 0.1 M): 0.05 mAbs/min | Substrate stability, UV Absorption ([4]; pH 8, tris maleate 0.1 M): 0.44 mAbs/min | Substrate stability, UV Absorption ([4]; pH 9, tris maleate 0.1 M): 0.555 mAbs/min | Sensitivity (minimal amount of enzyme per mL giving a signal at least three times background noise) (porcine esterase [2]; UV detection): 0.002

CC(=O)OC(C#N)c1ccc2ccccc2c1 (racemic)
melting point: 37 to 38 °C

CCOc1ccc2nc3ccc(=O)cc-3oc2c1 [Compound A, ethoxyresorufin, reference compound]
Specific Activity, With Enzyme System (cytochrome P450): 89.0 ± 4.6 pmol/min/mg protein | Specific Activity, Without Enzyme System (cytochrome P450): 52.2 ± 1.9 pmol/min/mg protein

COc1ccc2cc(C=O)ccc2c1 [aldehyde, 6-methoxy-2-naphthaldehyde]
OD (optical density) ([3]; tris-maleate pH 6.5, 10 μM): 0.473 | λmax ([3]; tris-maleate pH 6.5, 10 μM): 314 nm | ε (molar absorptivity) ([3]; tris-maleate pH 6.5, 10 μM): 11,870 | OD (optical density) ([3]; tris-maleate pH 7.5, 10 μM): 0.468 | λmax ([3]; tris-maleate pH 7.5, 10 μM): 313 nm | ε (molar absorptivity) ([3]; tris-maleate pH 7.5, 10 μM): 11,700 | OD (optical density) ([3]; tris-maleate pH 8.5, 10 μM): 0.465 | λmax ([3]; tris-maleate pH 8.5, 10 μM): 314 nm | ε (molar absorptivity) ([3]; tris-maleate pH 8.5, 10 μM): 11,630 | emission peak ([1]; over the three pH levels tested (6.5, 7.5, 8.5)): 460 nm | Emmax (maximal emission wavelength) ([1]; tris-maleate pH 6.5, 10 μM): 450 nm | Ex (optimal excitation wavelength) ([1]; tris-maleate pH 6.5, 10 μM): 360 nm | RFU (relative fluorescence units multiplied by 1,000) ([1]; tris-maleate pH 6.5, 10 μM): 17,783 RFU | Emmax (maximal emission wavelength) ([1]; tris-maleate pH 7.5, 10 μM): 485 nm | Ex (optimal excitation wavelength) ([1]; tris-maleate pH 7.5, 10 μM): 360 nm | RFU (relative fluorescence units multiplied by 1,000) ([1]; tris-maleate pH 7.5, 10 μM): 19,250 RFU | Emmax (maximal emission wavelength) ([1]; tris-maleate pH 8.5, 10 μM): 510 nm | Ex (optimal excitation wavelength) ([1]; tris-maleate pH 8.5, 10 μM): 360 nm | RFU (relative fluorescence units multiplied by 1,000) ([1]; tris-maleate pH 8.5, 10 μM): 19,256 RFU

N#CC(OC(=O)C/C=C/c1ccccc1)c1ccc2ccccc2c1 (centres unmarked)
melting point: 74 to 75 °C

COC(C#N)c1ccc2ccccc2c1 (centres unmarked) [Compound III, Methoxynaphthalene-2-yl Acetonitrile]
Specific Activity, With Enzyme System (cytochrome P450): 275.8 ± 20.5 pmol/min/mg protein | Specific Activity, Without Enzyme System (cytochrome P450): 45.9 ± 3.0 pmol/min/mg protein | melting point: 47 to 48 °C

COc1ccc2cc(C(C#N)OC(=O)C3C(C=C(Cl)Cl)C3(C)C)ccc2c1 (mixture of isomers) [Compound II, (trans/cis)-3-(2,2-Dichlorovinyl)-2,2-dimethylcyclopropanecarboxylic Acid Cyano-(6-methoxynaphthalen-2-yl) Methyl Ester]
Substrate stability, UV Absorption ([4]; pH 6, tris maleate 0.1 M): <0.01 mAbs/min | Substrate stability, UV Absorption ([4]; pH 7, tris maleate 0.1 M): <0.01 mAbs/min | Substrate stability, UV Absorption ([4]; pH 8, tris maleate 0.1 M): <0.01 mAbs/min | Substrate stability, UV Absorption ([4]; pH 9, tris maleate 0.1 M): 0.05 mAbs/min | Substrate stability, Fluorescence ([5]; pH 6, tris maleate 0.1 M): <1 pmol/min | Substrate stability, Fluorescence ([5]; pH 7, tris maleate 0.1 M): <1 pmol/min | Substrate stability, Fluorescence ([5]; pH 8, tris maleate 0.1 M): <1 pmol/min | Substrate stability, Fluorescence ([5]; pH 9, tris maleate 0.1 M): 10 pmol/min | Specific Activity [6]: 270 ± 18 pmol/min/mg protein | Specific Activity [7]: 840 ± 22 pmol/min/mg protein | Specific Activity [8]: 150 ± 9 pmol/min/mg protein | Specific Activity (porcine esterase [9]): 142,000 ± 520 pmol/min/mg protein | Specific Activity, With Enzyme System (cytochrome P450): 102.4 ± 7.5 pmol/min/mg protein | Specific Activity, Without Enzyme System (cytochrome P450): 33.4 ± 2.0 pmol/min/mg protein

N#CC(OCc1ccccc1)c1ccc2ccccc2c1 (centres unmarked)
melting point: 36 to 37 °C
